The source of these data is the PolyMetriX glass transition set.

`*C(=O)c1ccc(C(C)(CC)c2ccc(C(=O)N3CCN(*)CC3)cc2)cc1` (repeat unit) showed a glass transition temperature of 232.00 °C.

With `*C(=O)c1ccc(Oc2ccc(-c3ccc(Oc4ccc(C(=O)c5ccc6c(c5)C(=O)N(c5ccc(Oc7ccc(N8C(=O)c9ccc(*)cc9C8=O)cc7)cc5)C6=O)cc4)cc3)cc2)cc1` (repeat unit), the glass transition temperature amounted to 233.00 °C.

`*C(=O)c1ccc(Oc2ccc(N3C(=O)c4ccc(*)cc4C3=O)cc2)cc1` (repeat unit) gave a glass transition temperature of 297.00 °C.

`*C(=O)c1ccc(Oc2ccc(S(=O)(=O)c3ccc(Oc4ccc(C(=O)c5ccc6c(c5)C(=O)N(c5ccc(Oc7ccc(N8C(=O)c9ccc(*)cc9C8=O)cc7)cc5)C6=O)cc4)cc3)cc2)cc1` (repeat unit) showed a glass transition temperature of 241.00 °C.

Take `*C(=O)c1ccc2c(c1)C(=O)N(c1ccc(Oc3ccc(Oc4ccc(N5C(=O)c6ccc(*)cc6C5=O)cc4C(F)(F)F)cc3)cc1)C2=O` (repeat unit): the glass transition temperature is 237.10 °C.

`*C(=O)c1cccc(C(=O)c2ccc3c(c2)C(=O)N(c2ccc(Oc4ccc(S(=O)(=O)c5ccc(Oc6ccc(N7C(=O)c8ccc(*)cc8C7=O)cc6)cc5)cc4)cc2)C3=O)c1` (repeat unit) showed a glass transition temperature of 249.00 °C.

Regarding `*Nc1ccc(-c2ccc(NC(=O)c3ccc(NC(=O)c4ccc([Si](C)(C)c5ccc(C(=O)Nc6ccc(C(*)=O)cc6)cc5)cc4)cc3)cc2)cc1` (repeat unit), the glass transition temperature amounted to 320.00 °C.

In turn, `*Nc1ccc(C(c2ccc(NC(=O)c3ccc(-c4ccc(C(*)=O)c(C)c4)cc3C)cc2)(C(F)(F)F)C(F)(F)F)cc1` (repeat unit) gave a glass transition temperature of 289.00 °C.

As to `*Nc1ccc(NC(=O)c2ccc(NC(=O)c3ccc([Si](C)(C)c4ccc(C(=O)Nc5ccc(C(*)=O)cc5)cc4)cc3)cc2)cc1` (repeat unit), the glass transition temperature amounted to 338.00 °C.

`*Nc1cccc(NC(=O)c2ccc(NC(=O)c3ccc([Si](C)(C)c4ccc(C(=O)Nc5ccc(C(*)=O)cc5)cc4)cc3)cc2)c1` (repeat unit): the glass transition temperature amounted to 303.00 °C.

`*Oc1ccc(-c2ccc(OC(=O)c3cc(/N=N/c4ccc(OCC)cc4)ccc3-c3ccc(/N=N/c4ccc(OCC)cc4)cc3C(*)=O)cc2)cc1` (repeat unit) displayed a glass transition temperature of 165.00 °C.

`*Oc1ccc(/N=C/c2ccc(N(c3ccccc3)c3ccc(/C=N/c4ccc(*)cc4)cc3)cc2)cc1` (repeat unit) registered a glass transition temperature of 162.00 °C.

Molecule `*Oc1ccc(N(CC)c2ccc(/C=C(\C#N)C(=O)NC3CCCCC3NC(=O)/C(C#N)=C/c3ccc(N(CC)c4ccc(*)cc4)cc3)cc2)cc1` (repeat unit) gave a glass transition temperature of 235.00 °C.

As to `*c1ccc(-c2cc(C(C)(C)C)c(Oc3ccc(-n4c(=O)c5cc6c(=O)n(*)c(=O)c6cc5c4=O)cc3)c(C(C)(C)C)c2)cc1` (repeat unit), the glass transition temperature came out at 398.50 °C.

In turn, `*c1ccc(-c2cc(C(C)(C)C)c(Oc3ccc(-n4c(=O)c5cc6c(=O)n(*)c(=O)c6cc5c4=O)cc3C(F)(F)F)c(C(C)(C)C)c2)cc1` (repeat unit) showed a glass transition temperature of 420.00 °C.

Take `*c1ccc(-c2cc(CCCCCCCC)c(-c3ccc(-c4sc(*)cc4CCCCCCCC)cc3)s2)cn1` (repeat unit): the glass transition temperature stood at 16.20 °C.

Molecule `*c1ccc(-c2ccc(-c3cc(CCCCCCCC)c(-c4ccc(-c5sc(*)cc5CCCCCCCC)cc4)s3)cc2)cc1` (repeat unit) displayed a glass transition temperature of 0.60 °C.

Turning to `*c1ccc(-c2cnc3ccc(Oc4ccc5ncc(*)nc5c4)cc3n2)cc1` (repeat unit), the glass transition temperature amounted to 306.00 °C.

Molecule `*c1ccc(-c2nc3cc(-c4ccc5nc(-c6ccccc6)c(-c6ccc(-n7c(=O)c8cc9c(=O)n(*)c(=O)c9cc8c7=O)cc6)nc5c4)ccc3nc2-c2ccccc2)cc1` (repeat unit) returned a glass transition temperature of 217.00 °C.

For the molecule `*c1ccc(-c2nc3cc(-c4ccc5nc(-c6ccccc6)c(-c6ccc(N7C(=O)C8OC9C(=O)N(*)C(=O)C9C8C7=O)cc6)nc5c4)ccc3nc2-c2ccccc2)cc1` (repeat unit), the glass transition temperature was found to be 230.00 °C.

For `*c1ccc(-c2nc3cc(-c4ccc5oc(*)nc5c4)ccc3o2)cc1` (repeat unit), the glass transition temperature was 430.00 °C.

For the molecule `*c1ccc(-c2nc3cc(Oc4ccc5nc(-c6ccccc6)c(-c6ccc(-n7c(=O)c8cc9c(=O)n(*)c(=O)c9cc8c7=O)cc6)nc5c4)ccc3nc2-c2ccccc2)cc1` (repeat unit), the glass transition temperature was determined as 274.00 °C.

`*c1ccc(-c2nc3cc4nc(-c5ccccc5)c(*)nc4cc3nc2-c2ccccc2)cc1` (repeat unit) showed a glass transition temperature of 395.00 °C.

In turn, `*c1ccc(-c2nc3ccccc3o2)c(*)c1` (repeat unit) gave a glass transition temperature of 229.00 °C.

`*c1ccc(-c2nnc(*)o2)c(OCCCCC)c1` (repeat unit) registered a glass transition temperature of 205.00 °C.

Take `*c1ccc(-c2sc(-c3cc(CCCC)c(*)s3)cc2CCCC)cc1` (repeat unit): the glass transition temperature turned out to be 122.30 °C.

As for `*c1ccc(-c2sc(-c3cc(CCCCCCCCCCCC)c(*)s3)cc2CCCCCCCCCCCC)cc1` (repeat unit), the glass transition temperature was found to be 59.60 °C.

The molecule `*c1ccc(-c2sc(-c3cc(SCCCCCCCCCCCC)c(*)s3)cc2SCCCCCCCCCCCC)cc1` (repeat unit) displayed a glass transition temperature of 65.40 °C.

Consider `*c1ccc(-c2sc(-c3ccc(-c4cc(CCCCCCCC)c(*)s4)cc3)cc2CCCCCCCC)cc1` (repeat unit), for which the glass transition temperature is -4.00 °C.

As for `*c1ccc(-c2sc(-c3ccc(-c4cc(CCCCCCCCCCCC)c(*)s4)cc3)cc2CCCCCCCCCCCC)cc1` (repeat unit), the glass transition temperature is -19.20 °C.

The molecule `*c1ccc(-c2sc(-c3ccc(-c4cc(SCCCCCCCC)c(*)s4)cc3)cc2SCCCCCCCC)cc1` (repeat unit) came in with a glass transition temperature of -38.80 °C.

In turn, `*c1ccc(-c2sc(-c3ccc(-n4c(=O)c5cc6c(=O)n(*)c(=O)c6cc5c4=O)cc3)c(-c3ccccc3)c2-c2ccccc2)cc1` (repeat unit) came in with a glass transition temperature of 460.00 °C.

As to `*c1ccc(C(c2ccc(-c3nc4ccc(-c5ccc6nc(*)oc6c5)cc4o3)cc2)(C(F)(F)F)C(F)(F)F)cc1` (repeat unit), the glass transition temperature worked out at 345.00 °C.

The molecule `*c1ccc(C2(c3ccc(-c4nnc(*)o4)cc3)OC(=O)c3ccccc32)cc1` (repeat unit) registered a glass transition temperature of 380.00 °C.

With `*c1ccc(N/C=N/c2ccc(S(*)(=O)=O)cc2)cc1` (repeat unit), the glass transition temperature stood at 163.00 °C.

In turn, `*c1ccc(NC(=O)c2ccc(NC(=O)c3ccc([Si](C)(C)c4ccc(C(=O)Nc5ccc(C(=O)Nc6ccc(-c7sc(*)c(-c8ccccc8)c7-c7ccccc7)cc6)cc5)cc4)cc3)cc2)cc1` (repeat unit) came in with a glass transition temperature of 337.00 °C.

In turn, `*c1ccc([Si](c2ccccc2)(c2ccccc2)c2ccc(-c3nnc(-c4ccc(-c5nnc(*)o5)c5ccccc45)o3)cc2)cc1` (repeat unit) gave a glass transition temperature of 273.00 °C.

In the case of `*c1ccc2oc(-c3ccc(C(c4ccc(-c5nc6cc(C(*)(C(F)(F)F)C(F)(F)F)ccc6o5)cc4)(C(F)(F)F)C(F)(F)F)cc3)nc2c1` (repeat unit), the glass transition temperature is 336.00 °C.
